For one series, the system named is Artemia salina. As to the kind of experiment: Toxicity in Artemia salina at 100 ug/ml. The format is organism-based. To be noted: in vivo.
The test system of a further series is Escherichia coli. As to the kind of experiment: Antibacterial activity against Escherichia coli after 24 hrs. The format is functional.

In brackets after ≈: the same amount, converted by molar mass. Numbered stars: 1 amine (or outer) side, 2 acyl side, 3 side chain; on linkers, the order of the positions; unused ones are H or OH. Square brackets hold non-standard residues; d marks the D form. Peptide text beside a SMILES is read from it. X1 = C[C@H]1CCN([*:1])[C@@H]1C(=O)[*:2]; NMeF = CN[C@@H](Cc1ccccc1)C(=O)O; Hica(2S) = CC(C)C[C@H](O)C(=O)O; NMeL = CN[C@@H](CC(C)C)C(=O)O; NMeV = CN[C@H](C(=O)O)C(C)C; βAla = NCCC(=O)O

In the case of `CC(C)C[C@@H]1NC(=O)[C@H](C(C)C)N(C)C(=O)[C@H](Cc2ccccc2)NC(=O)[C@@H]2CCCN2C(=O)[C@H](CC(C)C)OC(=O)CCNC1=O` (cyclo(F[NMeV]L[βAla][Hica(2S)]P)), the Activity entry with Artemia salina is recorded as “Non-toxic”. Also, the MIC (as a rule, the smallest concentration in the dilution series that meets the test's criterion for growth inhibition) against Escherichia coli was 8 µg/mL (≈ 12.2 µM).

As for `CC(C)C[C@@H]1OC(=O)CCNC(=O)[C@H](Cc2ccccc2)N(C)C(=O)[C@H](C(C)C)N(C)C(=O)[C@H](Cc2ccccc2)NC(=O)[C@@H]2CCCN2C1=O` (cyclo(F[NMeV][NMeF][βAla][Hica(2S)]P)), in the series with Artemia salina, the Activity entry is “Non-toxic”.

For `CC(C)C[C@@H]1OC(=O)CCNC(=O)[C@H](Cc2ccccc2)N(C)C(=O)[C@H](C(C)C)N(C)C(=O)[C@H](Cc2ccccc2)NC(=O)[C@@H]2[C@@H](C)CCN2C1=O` (cyclo(F[NMeV][NMeF][βAla][Hica(2S)][X1])), in the series on Artemia salina, the Activity result is on record as “Non-toxic”.

As to `CC(C)C[C@@H]1OC(=O)CCNC(=O)[C@H](C(C)C)N(C)C(=O)[C@H](C(C)C)N(C)C(=O)[C@H](Cc2ccccc2)NC(=O)[C@@H]2CCCN2C1=O` (cyclo(F[NMeV][NMeV][βAla][Hica(2S)]P)), the Activity entry with Artemia salina is reported as “Non-toxic”. This molecule displayed an MIC with Escherichia coli of 16 µg/mL (≈ 24.4 µM).

For the molecule `CC(C)C[C@@H]1OC(=O)CCNC(=O)[C@H](CC(C)C)N(C)C(=O)[C@H](C(C)C)N(C)C(=O)[C@H](Cc2ccc(O)cc2)NC(=O)[C@@H]2CCCN2C1=O` (cyclo([Hica(2S)]PY[NMeV][NMeL][βAla])), the Activity entry in the series with Artemia salina is listed as “Non-toxic”. For the same molecule, in the series with Escherichia coli, the minimal inhibitory concentration (MIC) stood at 64 µg/mL (≈ 93.3 µM).

`O=C(N[C@H](CO)[C@H](O)c1ccc([N+](=O)[O-])cc1)C(Cl)Cl` [CHLORAMPHENICOL]: in the series on Escherichia coli, the MIC is 4 µg/mL (≈ 12.4 µM).

For the molecule `CC(C)C[C@@H]1NC(=O)[C@H](C(C)C)N(C)C(=O)[C@H](Cc2ccc(O)cc2)NC(=O)[C@@H]2CCCN2C(=O)[C@H](CC(C)C)OC(=O)CCNC1=O` (cyclo(L[βAla][Hica(2S)]PY[NMeV])), the Activity entry in the series with Artemia salina was “Non-toxic”. In addition, the MIC in the series with Escherichia coli was found to be 64 µg/mL (≈ 95.3 µM).

These data come from ChEMBL document CHEMBL3286327, “Cyclohexadepsipeptides of the isaridin class from the marine-derived fungus Beauveria felina EN-135” (J Nat Prod, 2014).
